Each structure is given as a SMILES string.

Km and IC50 data for 3 compounds are collected here from paper PMC5506657, “Improvement in phosphate acquisition and utilization by a secretory purple acid phosphatase (OsPAP21b) in rice” (Plant Biotechnology Journal, 2017).

Test [1] concerns OsPAP21b. Briefly: released Pi by vanadomolybdate; Lineweaver-Burk. It is filed as biochemical, Oryza sativa. The following applies: 5 mM MgCl2, 50 mM sodium acetate pH 5.0, 37 °C; 0.1-100 mM substrate.
Test [2] concerns OsPAP21b. The following applies: 10 mM pNPP; 0 to 25 mM NaH2PO4; 5 mM MgCl2, 50 mM sodium acetate pH 5.0, 37 °C; reaction product as inhibitor.

Regarding `Nc1ncnc2c1ncn2[C@@H]1O[C@H](COP(=O)(O)OP(=O)(O)O)[C@@H](O)[C@H]1O` [ADP], in test [1], the Km (as a rule, the concentration of substrate that gives half-maximal velocity) was determined as 77 ± 4 µM.

Regarding `O=P(O)(O)O` [Pi], the half-inhibitory concentration (IC50) (in general, the concentration that gives 50% inhibition) in test [2] turned out to be 5.09 ± 1.34 mM.

Turning to `O=[N+]([O-])c1ccc(OP(=O)(O)O)cc1` [pNPP], the Km in test [1] was found to be 90 ± 10 µM.
